Measurements as given in PubChem BioAssay (NCI).
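Five concentrations, 48 hours, 96-well plates. TGI: total growth inhibition.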

Experiments:
Assay in all cases: DTP human tumour cell line panel, 48 h
786-0 renal = system: 786-0 renal
A498 renal = system: A498 renal
A549 NSCLC = system: A549 NSCLC
ACHN renal = system: ACHN renal
CCRF-CEM leukemia = system: CCRF-CEM leukemia
COLO 205 colon = system: COLO 205 colon
DLD-1 colon = system: DLD-1 colon
DMS 114 small cell lung = system: DMS 114 small cell lung
DMS 273 small cell lung = system: DMS 273 small cell lung
EKVX NSCLC = system: EKVX NSCLC
HCC-2998 colon = system: HCC-2998 colon
HCT-116 colon = system: HCT-116 colon
HCT-15 colon = system: HCT-15 colon
HL-60(TB) leukemia = system: HL-60(TB) leukemia
HOP-18 NSCLC = system: HOP-18 NSCLC
HOP-62 NSCLC = system: HOP-62 NSCLC
HOP-92 NSCLC = system: HOP-92 NSCLC
HT29 colon = system: HT29 colon
IGROV1 ovarian = system: IGROV1 ovarian
K-562 leukemia = system: K-562 leukemia
KM12 colon = system: KM12 colon
KM20L2 colon = system: KM20L2 colon
LOX IMVI melanoma = system: LOX IMVI melanoma
LXFL 529 NSCLC = system: LXFL 529 NSCLC
M14 melanoma = system: M14 melanoma
M19-MEL melanoma = system: M19-MEL melanoma
MALME-3M melanoma = system: MALME-3M melanoma
MOLT-4 leukemia = system: MOLT-4 leukemia
NCI-H226 lung = system: NCI-H226 lung
NCI-H23 lung = system: NCI-H23 lung
NCI-H460 lung = system: NCI-H460 lung
OVCAR-3 ovarian = system: OVCAR-3 ovarian
OVCAR-4 ovarian = system: OVCAR-4 ovarian
OVCAR-5 ovarian = system: OVCAR-5 ovarian
OVCAR-8 ovarian = system: OVCAR-8 ovarian
RPMI-8226 leukemia = system: RPMI-8226 leukemia
RXF 393 renal = system: RXF 393 renal
RXF-631 renal = system: RXF-631 renal
SF-268 CNS = system: SF-268 CNS
SF-295 CNS = system: SF-295 CNS
SF-539 CNS = system: SF-539 CNS
SK-MEL-2 melanoma = system: SK-MEL-2 melanoma
SK-MEL-28 melanoma = system: SK-MEL-28 melanoma
SK-MEL-5 melanoma = system: SK-MEL-5 melanoma
SK-OV-3 ovarian = system: SK-OV-3 ovarian
SN12C renal = system: SN12C renal
SNB-19 CNS = system: SNB-19 CNS
SNB-75 CNS = system: SNB-75 CNS
SNB-78 CNS = system: SNB-78 CNS
SR leukemia = system: SR leukemia
SW-620 colon = system: SW-620 colon
TK-10 renal = system: TK-10 renal
U251 CNS = system: U251 CNS
UACC-257 melanoma = system: UACC-257 melanoma
UACC-62 melanoma = system: UACC-62 melanoma
UO-31 renal = system: UO-31 renal
XF 498 CNS = system: XF 498 CNS

Compound Cc1cc(=O)oc2cc3c(cc12)Oc1ccccc1O3 has a TGI (786-0 renal) greater than 100 µM, a TGI (A498 renal) greater than 100 µM and a TGI (A549 NSCLC) greater than 100 µM. It also gave a TGI (ACHN renal) greater than 100 µM, a TGI (CCRF-CEM leukemia) greater than 10 µM and a TGI (COLO 205 colon) greater than 100 µM. For the same compound, the TGI (DLD-1 colon) was greater than 100 µM, the TGI (DMS 114 small cell lung) was greater than 100 µM and the TGI (DMS 273 small cell lung) was greater than 100 µM. The TGI (EKVX NSCLC) was greater than 10 µM, the TGI (HCC-2998 colon) was greater than 10 µM and the TGI (HCT-116 colon) was greater than 100 µM. For the same compound, the TGI (HCT-15 colon) was greater than 100 µM, the TGI (HL-60(TB) leukemia) was greater than 10 µM and the TGI (HOP-18 NSCLC) was greater than 100 µM. It also gave a TGI (HOP-62 NSCLC) greater than 100 µM, a TGI (HOP-92 NSCLC) greater than 100 µM and a TGI (HT29 colon) greater than 100 µM. It also gave a TGI (IGROV1 ovarian) greater than 100 µM, a TGI (K-562 leukemia) greater than 10 µM and a TGI (KM12 colon) greater than 100 µM. For the same compound, the TGI (KM20L2 colon) was greater than 100 µM, the TGI (LOX IMVI melanoma) was greater than 100 µM and the TGI (LXFL 529 NSCLC) was greater than 100 µM. The TGI (M14 melanoma) was greater than 100 µM, the TGI (M19-MEL melanoma) was greater than 100 µM and the TGI (MALME-3M melanoma) was greater than 100 µM. The TGI (MOLT-4 leukemia) was greater than 100 µM, the TGI (NCI-H226 lung) was greater than 100 µM and the TGI (NCI-H23 lung) was greater than 100 µM. It also gave a TGI (NCI-H460 lung) greater than 100 µM, a TGI (OVCAR-3 ovarian) greater than 100 µM and a TGI (OVCAR-4 ovarian) greater than 100 µM. It also gave a TGI (OVCAR-5 ovarian) greater than 100 µM, a TGI (OVCAR-8 ovarian) greater than 100 µM and a TGI (RPMI-8226 leukemia) greater than 100 µM. For the same compound, the TGI (RXF 393 renal) was greater than 100 µM, the TGI (RXF-631 renal) was greater than 100 µM and the TGI (SF-268 CNS) was greater than 100 µM. For the same compound, the TGI (SF-295 CNS) was greater than 100 µM, the TGI (SF-539 CNS) was 56.7 µM and the TGI (SK-MEL-2 melanoma) was greater than 100 µM. The TGI (SK-MEL-28 melanoma) was greater than 100 µM, the TGI (SK-MEL-5 melanoma) was greater than 100 µM and the TGI (SK-OV-3 ovarian) was greater than 100 µM. It also gave a TGI (SN12C renal) greater than 100 µM, a TGI (SNB-19 CNS) greater than 100 µM and a TGI (SNB-75 CNS) of 59.9 µM. It also gave a TGI (SNB-78 CNS) greater than 100 µM, a TGI (SR leukemia) greater than 100 µM and a TGI (SW-620 colon) greater than 100 µM. It also gave a TGI (TK-10 renal) greater than 100 µM, a TGI (U251 CNS) greater than 100 µM and a TGI (UACC-257 melanoma) greater than 100 µM. The TGI (UACC-62 melanoma) was greater than 100 µM, the TGI (UO-31 renal) was greater than 100 µM and the TGI (XF 498 CNS) was greater than 10 µM.
